System: cytopathogenic HCV variant C-13
Assay: Antiviral activity in pig embryonic kidney cell (SPEV) cultures infected with HCV
Procedure: Infectious HCV doses used were equal to 10.0 tissue cytopathogenic doses (TCID50)/20 μL.
The used primary fibroblasts highly sensitive to cytopathogenic action of HCV were obtained after trypsinization of 9-day-old chick embryos (FEC), and the used pig embryonic kidney cell (SPEV) cultures were obtained from the Collection of Cell Cultures of the Institute of Virology RAMS. They were used in the form of a one-day cell monolayer grown in 24-well plastic plates. The SPEV and FEC cell cultures were cultured in medium 199 with 10% fetal calf serum, supplemented with glutamine and antibiotics (100 U/ml).
To study the antiviral activity of the drug, a 50 μL of a solution thereof taken in various dilutions were added to the FEC cultures at the time of infection, 24 hours before and 24 hours after infection of the cells.
The infectious activity of HCV was assessed according to the results of titration of fluid samples in the SPEV cell cultures, wherein the culture fluids were derived from the HCV-infected FEC or SPEV cultures on 2 and 5 days after infection. The results were usually registered 6 or 7 days after infection, when the viral cytopathic effect reached its maximum, using the Reed and Muench formula to determine HCV titers.
Samples of the culture medium were taken on Day 3, Day 4 and Day 5 after infection and titrated in fresh SPEV cell cultures.

## O=C(O)CCCC(=O)NCCc1c[nH]cn1 [glutaryl histamine]
SPEV, Day 3, 0.005 μg/mL, treatment 24 hours after infection
  HCV titers (lg TCID50 for SPEV cell cultures) in medium samples: 0 lg TCID50
SPEV, Day 3, 0.005 μg/mL, treatment 24 hours before infection
  HCV titers (lg TCID50 for SPEV cell cultures) in medium samples: 3.0 lg TCID50
SPEV, Day 3, 0.005 μg/mL, treatment at the time of infection
  HCV titers (lg TCID50 for SPEV cell cultures) in medium samples: 3.3 lg TCID50
SPEV, Day 3, 0.05 μg/mL, treatment 24 hours after infection
  HCV titers (lg TCID50 for SPEV cell cultures) in medium samples: <1.0 lg TCID50
SPEV, Day 3, 0.05 μg/mL, treatment 24 hours before infection
  HCV titers (lg TCID50 for SPEV cell cultures) in medium samples: 3.2 lg TCID50
SPEV, Day 3, 0.05 μg/mL, treatment at the time of infection
  HCV titers (lg TCID50 for SPEV cell cultures) in medium samples: 3.3 lg TCID50
SPEV, Day 3, 0.5 μg/mL, treatment 24 hours after infection
  HCV titers (lg TCID50 for SPEV cell cultures) in medium samples: 0 lg TCID50
SPEV, Day 3, 0.5 μg/mL, treatment 24 hours before infection
  HCV titers (lg TCID50 for SPEV cell cultures) in medium samples: 3.2 lg TCID50
SPEV, Day 3, 0.5 μg/mL, treatment at the time of infection
  HCV titers (lg TCID50 for SPEV cell cultures) in medium samples: 3.3 lg TCID50
SPEV, Day 3, 5.0 μg/mL, treatment 24 hours after infection
  HCV titers (lg TCID50 for SPEV cell cultures) in medium samples: 0 lg TCID50
SPEV, Day 3, 5.0 μg/mL, treatment 24 hours before infection
  HCV titers (lg TCID50 for SPEV cell cultures) in medium samples: 3.5 lg TCID50
SPEV, Day 3, 5.0 μg/mL, treatment at the time of infection
  HCV titers (lg TCID50 for SPEV cell cultures) in medium samples: 2.3 lg TCID50
SPEV, Day 3, 50.0 μg/mL, treatment 24 hours after infection
  HCV titers (lg TCID50 for SPEV cell cultures) in medium samples: 1.25 lg TCID50
SPEV, Day 3, 50.0 μg/mL, treatment 24 hours before infection
  HCV titers (lg TCID50 for SPEV cell cultures) in medium samples: 3.5 lg TCID50
SPEV, Day 3, 50.0 μg/mL, treatment at the time of infection
  HCV titers (lg TCID50 for SPEV cell cultures) in medium samples: 3.5 lg TCID50
SPEV, Day 3, 500.0 μg/mL, treatment 24 hours after infection
  HCV titers (lg TCID50 for SPEV cell cultures) in medium samples: 0 lg TCID50
SPEV, Day 3, 500.0 μg/mL, treatment 24 hours before infection
  HCV titers (lg TCID50 for SPEV cell cultures) in medium samples: 3.5 lg TCID50
SPEV, Day 3, 500.0 μg/mL, treatment at the time of infection
  HCV titers (lg TCID50 for SPEV cell cultures) in medium samples: 3.0 lg TCID50
SPEV, Day 4, 0.005 μg/mL, treatment 24 hours after infection
  HCV titers (lg TCID50 for SPEV cell cultures) in medium samples: 0 lg TCID50
SPEV, Day 4, 0.005 μg/mL, treatment 24 hours before infection
  HCV titers (lg TCID50 for SPEV cell cultures) in medium samples: 3.4 lg TCID50
SPEV, Day 4, 0.005 μg/mL, treatment at the time of infection
  HCV titers (lg TCID50 for SPEV cell cultures) in medium samples: 4.1 lg TCID50
SPEV, Day 4, 0.05 μg/mL, treatment 24 hours after infection
  HCV titers (lg TCID50 for SPEV cell cultures) in medium samples: 1.3 lg TCID50
SPEV, Day 4, 0.05 μg/mL, treatment 24 hours before infection
  HCV titers (lg TCID50 for SPEV cell cultures) in medium samples: 3.0 lg TCID50
SPEV, Day 4, 0.05 μg/mL, treatment at the time of infection
  HCV titers (lg TCID50 for SPEV cell cultures) in medium samples: 4.4 lg TCID50
SPEV, Day 4, 0.5 μg/mL, treatment 24 hours after infection
  HCV titers (lg TCID50 for SPEV cell cultures) in medium samples: 0 lg TCID50
SPEV, Day 4, 0.5 μg/mL, treatment 24 hours before infection
  HCV titers (lg TCID50 for SPEV cell cultures) in medium samples: 3.8 lg TCID50
SPEV, Day 4, 0.5 μg/mL, treatment at the time of infection
  HCV titers (lg TCID50 for SPEV cell cultures) in medium samples: 4.1 lg TCID50
SPEV, Day 4, 5.0 μg/mL, treatment 24 hours after infection
  HCV titers (lg TCID50 for SPEV cell cultures) in medium samples: 0 lg TCID50
SPEV, Day 4, 5.0 μg/mL, treatment 24 hours before infection
  HCV titers (lg TCID50 for SPEV cell cultures) in medium samples: 3.4 lg TCID50
SPEV, Day 4, 5.0 μg/mL, treatment at the time of infection
  HCV titers (lg TCID50 for SPEV cell cultures) in medium samples: 5.5 lg TCID50
SPEV, Day 4, 50.0 μg/mL, treatment 24 hours after infection
  HCV titers (lg TCID50 for SPEV cell cultures) in medium samples: 2.6 lg TCID50
SPEV, Day 4, 50.0 μg/mL, treatment 24 hours before infection
  HCV titers (lg TCID50 for SPEV cell cultures) in medium samples: 3.8 lg TCID50
SPEV, Day 4, 50.0 μg/mL, treatment at the time of infection
  HCV titers (lg TCID50 for SPEV cell cultures) in medium samples: 5.0 lg TCID50
SPEV, Day 4, 500.0 μg/mL, treatment 24 hours after infection
  HCV titers (lg TCID50 for SPEV cell cultures) in medium samples: 0 lg TCID50
SPEV, Day 4, 500.0 μg/mL, treatment 24 hours before infection
  HCV titers (lg TCID50 for SPEV cell cultures) in medium samples: 3.8 lg TCID50
SPEV, Day 4, 500.0 μg/mL, treatment at the time of infection
  HCV titers (lg TCID50 for SPEV cell cultures) in medium samples: 4.2 lg TCID50
SPEV, Day 5, 0.005 μg/mL, treatment 24 hours after infection
  HCV titers (lg TCID50 for SPEV cell cultures) in medium samples: 0 lg TCID50
SPEV, Day 5, 0.005 μg/mL, treatment 24 hours before infection
  HCV titers (lg TCID50 for SPEV cell cultures) in medium samples: 4.5 lg TCID50
SPEV, Day 5, 0.005 μg/mL, treatment at the time of infection
  HCV titers (lg TCID50 for SPEV cell cultures) in medium samples: 5.5 lg TCID50
SPEV, Day 5, 0.05 μg/mL, treatment 24 hours after infection
  HCV titers (lg TCID50 for SPEV cell cultures) in medium samples: 1.8 lg TCID50
SPEV, Day 5, 0.05 μg/mL, treatment 24 hours before infection
  HCV titers (lg TCID50 for SPEV cell cultures) in medium samples: 4.5 lg TCID50
SPEV, Day 5, 0.05 μg/mL, treatment at the time of infection
  HCV titers (lg TCID50 for SPEV cell cultures) in medium samples: 5.0 lg TCID50
SPEV, Day 5, 0.5 μg/mL, treatment 24 hours after infection
  HCV titers (lg TCID50 for SPEV cell cultures) in medium samples: 0 lg TCID50
SPEV, Day 5, 0.5 μg/mL, treatment 24 hours before infection
  HCV titers (lg TCID50 for SPEV cell cultures) in medium samples: 4.5 lg TCID50
SPEV, Day 5, 0.5 μg/mL, treatment at the time of infection
  HCV titers (lg TCID50 for SPEV cell cultures) in medium samples: 5.5 lg TCID50
SPEV, Day 5, 5.0 μg/mL, treatment 24 hours after infection
  HCV titers (lg TCID50 for SPEV cell cultures) in medium samples: 0 lg TCID50
SPEV, Day 5, 5.0 μg/mL, treatment 24 hours before infection
  HCV titers (lg TCID50 for SPEV cell cultures) in medium samples: 4.5 lg TCID50
SPEV, Day 5, 5.0 μg/mL, treatment at the time of infection
  HCV titers (lg TCID50 for SPEV cell cultures) in medium samples: 5.5 lg TCID50
SPEV, Day 5, 50.0 μg/mL, treatment 24 hours after infection
  HCV titers (lg TCID50 for SPEV cell cultures) in medium samples: 2.8 lg TCID50
SPEV, Day 5, 50.0 μg/mL, treatment 24 hours before infection
  HCV titers (lg TCID50 for SPEV cell cultures) in medium samples: 4.5 lg TCID50
SPEV, Day 5, 50.0 μg/mL, treatment at the time of infection
  HCV titers (lg TCID50 for SPEV cell cultures) in medium samples: 7.0 lg TCID50
SPEV, Day 5, 500.0 μg/mL, treatment 24 hours after infection
  HCV titers (lg TCID50 for SPEV cell cultures) in medium samples: 0 lg TCID50
SPEV, Day 5, 500.0 μg/mL, treatment 24 hours before infection
  HCV titers (lg TCID50 for SPEV cell cultures) in medium samples: 6.0 lg TCID50
SPEV, Day 5, 500.0 μg/mL, treatment at the time of infection
  HCV titers (lg TCID50 for SPEV cell cultures) in medium samples: 5.5 lg TCID50
SPEV, Day 5 after infection and simultaneous treatment of the cells
  suppression of HCV infectious activity: 2.2-2.7 lg TCID50/20 μg
SPEV, medium collected on Day 5 after infection
  suppression of the production of HCV compared with the control: 2.2 lg TCID50/20 μg
Added to the cultures 24 hours after infection
  HCV replication in SPEV cell cultures: significantly suppresses

Source: patent publication US9351960B2 (priority 2012, dated 2016)
